This is an account of results in ChEMBL document CHEMBL1136731, “Synthesis and biological evaluation of non-peptidic cyclophilin ligands” (J Med Chem, 2003).

pIC50: −log10 of the molar value.

The target in assay [1] is Peptidyl-prolyl cis-trans isomerase A (Rattus norvegicus) (UniProt P10111). The assay can be described thus: In vitro inhibition of the rotamase activity of cyclophilin A (CyPA) […].
Assay [2] has as its target Peptidyl-prolyl cis-trans isomerase A (Rattus norvegicus, UniProt P10111). The assay can be described thus: In vitro inhibition of the rotamase activity of cyclophilin A (CyPA).

Sequence of Peptidyl-prolyl cis-trans isomerase A (P10111 whole entry): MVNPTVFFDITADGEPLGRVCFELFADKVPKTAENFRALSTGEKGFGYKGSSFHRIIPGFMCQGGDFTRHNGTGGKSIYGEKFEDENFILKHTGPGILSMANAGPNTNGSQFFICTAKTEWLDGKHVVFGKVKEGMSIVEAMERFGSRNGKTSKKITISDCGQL
Sequence of Peptidyl-prolyl cis-trans isomerase A (Rattus norvegicus) (P10111 whole entry): as above

As for `O=C(Nc1cccc(NC(=O)c2cccnc2)c1)c1cccnc1`, the inhibition in assay [1] was 6%. `O=C(CC(c1ccccc1)c1ccccc1)Nc1cccc(NC(=O)c2cc(Cl)cc(Cl)c2)c1` gave a pIC50 in assay [2] of 6.06. In assay [1], `CC(C)(C)NC(=O)NC1CCCC(NC(=O)NC(C)(C)C)C1` (stereo not drawn) displayed an inhibition of 7%. For `O=C(Nc1cccc(NC(=O)Nc2ccccn2)c1)Nc1ccccn1`, in assay [1], the inhibition came out at 0%. On to `CCc1ccccc1NC(=O)Nc1cccc(NC(=O)c2cc(Cl)cc(Cl)c2)c1`, for which the pIC50 in assay [2] is 5.85. `O=C(NCc1cccc2ccccc12)Nc1cccc(NC(=O)NCc2cccc3ccccc23)c1` came in with an inhibition in assay [1] of 100%. `O=C(NC1CCCC(NC(=O)NC23CC4CC(CC(C4)C2)C3)C1)NC12CC3CC(CC(C3)C1)C2` (stereo not drawn): the inhibition in assay [1] is 28%.

In assay [1], `Cc1ccc(NC(=O)NC2CCCC(NC(=O)Nc3ccc(C)cc3C)C2)c(C)c1` (stereo not drawn) displayed an inhibition of 40%. Compound `O=C(NCC(c1ccccc1)c1ccccc1)Nc1cccc(NC(=O)NCC(c2ccccc2)c2ccccc2)c1` had an inhibition in assay [1] of 100%. As to `S=C(Nc1cc(Cl)cc(Cl)c1)Nc1cccc(NC(=S)Nc2cc(Cl)cc(Cl)c2)c1`, the negative logarithm of the IC50 (pIC50) in assay [2] was 6.32. In turn, `O=C(NCc1ccccc1)Nc1cccc(NC(=O)NCc2ccccc2)c1` yielded an inhibition in assay [1] of 19%. Turning to `O=C(Nc1cc(Cl)cc(Cl)c1)NC1CCCC(NC(=O)Nc2cc(Cl)cc(Cl)c2)C1` (stereo not drawn), the inhibition in assay [1] was 100%. In assay [1], `O=C(Nc1cc(Cl)cc(Cl)c1)Nc1cccc(NC(=O)Nc2cc(Cl)cc(Cl)c2)c1` returned an inhibition of 100%. In assay [2], `O=C(Nc1ccccc1)Nc1cccc(NC(=O)c2cc(Cl)cc(Cl)c2)c1` gave a pIC50 of 5.93. Compound `O=C(NCc1ccccc1)NC1CCCC(NC(=O)NCc2ccccc2)C1` (stereo not drawn) displayed an inhibition in assay [1] of 11%.

In assay [1], `O=C(Nc1ccc(Cl)cc1)NC1CCCC(NC(=O)Nc2ccc(Cl)cc2)C1` (stereo not drawn) had an inhibition of 32%. The compound `COc1cccc(NC(=O)Nc2cccc(NC(=O)Nc3cccc(OC)c3)c2)c1` gave an inhibition in assay [1] of 8%. In assay [1], `CN(C)c1ccc(NC(=O)Nc2cc(NC(=O)Nc3ccc(N(C)C)cc3)c(Br)cc2Br)cc1` registered an inhibition of 98%. In addition, in assay [2], the negative-log IC50 (pIC50) is 5.54.

With `O=C(Nc1cccc(NC(=O)Nc2ccc(Br)cc2Br)c1)Nc1ccc(Br)cc1Br`, the inhibition in assay [1] came to 100%. As for `COc1cccc(NC(=O)NC2CCCC(NC(=O)Nc3cccc(OC)c3)C2)c1` (stereo not drawn), the inhibition in assay [1] came to 100%. In addition, the pIC50 in assay [2] is 5.02. In the case of `CCCCNC(=O)Nc1cccc(NC(=O)NCCCC)c1`, in assay [1], the inhibition came to 23%. With `N#Cc1cccc(NC(=O)Nc2cccc(NC(=O)Nc3cccc(C#N)c3)c2)c1`, in assay [1], the inhibition turned out to be 38%.

`O=C(Cc1ccc2ccccc2c1)Nc1cccc(NC(=O)c2cc(Cl)cc(Cl)c2)c1`: in assay [2], the negative-log IC50 (pIC50) is 6.06. In turn, `N#Cc1cccc(NC(=O)NC2CCCC(NC(=O)Nc3cccc(C#N)c3)C2)c1` (stereo not drawn) had an inhibition in assay [1] of 22%. In turn, `O=C(Cc1cccc2ccccc12)Nc1cccc(NC(=O)c2cc(Cl)cc(Cl)c2)c1` gave a pIC50 in assay [2] of 5.95. With `O=C(Nc1cccc(NC(=O)c2cc(Cl)cc(Cl)c2)c1)c1cc(Cl)cc(Cl)c1`, in assay [2], the pIC50 is 6.03. As to `O=C(NCc1ccccc1)Nc1cccc(NC(=O)c2cc(Cl)cc(Cl)c2)c1`, the negative-log IC50 (pIC50) in assay [2] was 5.47. Same read-out and setting: the result for `O=C(Nc1cccc(NC(=O)c2cc(Cl)cc(Cl)c2)c1)Nc1ccc(Br)cc1Br` reads 6.21.

In assay [1], `O=C(Nc1cccc2ccccc12)NC1CCCC(NC(=O)Nc2cccc3ccccc23)C1` (stereo not drawn) came in with an inhibition of 100%. Besides, in assay [2], the pIC50 was 5.34. `O=C(Nc1ccc(I)cc1)Nc1cc(NC(=O)Nc2ccc(I)cc2)c(Br)cc1Br` displayed an inhibition in assay [1] of 100%. The compound further had a pIC50 in assay [2] of 6.23.

`O=C(Nc1ccc(C(F)(F)F)cc1)Nc1cccc(NC(=O)c2cc(Cl)cc(Cl)c2)c1`: in assay [2], the pIC50 was 6.03. `O=C(Cc1ccccc1)Nc1cccc(NC(=O)c2cc(Cl)cc(Cl)c2)c1`: in assay [1], the inhibition stood at 44%. For `O=C(Nc1cc(Cl)cc(Cl)c1)Nc1cccc(NC(=O)c2cc(Cl)cc(Cl)c2)c1`, in assay [2], the negative-log IC50 (pIC50) was 6.16. `Cc1ccccc1CNC(=O)Nc1cccc(NC(=O)c2cc(Cl)cc(Cl)c2)c1` gave a negative logarithm of the IC50 (pIC50) in assay [2] of 5.67. Consider `Cc1ccc(NC(=O)Nc2cccc(NC(=O)Nc3ccc(C)cc3C)c2)c(C)c1`, for which, in assay [1], the inhibition is 100%. Same read-out and setting: the result for `O=C(Nc1ccc(Br)cc1Br)NC1CCCC(NC(=O)Nc2ccc(Br)cc2Br)C1` (stereo not drawn) reads 100%. `O=C(Nc1cccc(NC(=O)Nc2ccon2)c1)Nc1ccon1` displayed an inhibition in assay [1] of 93%. Further, the negative logarithm of the IC50 (pIC50) in assay [2] was 5.40.

Take `O=C(NC1CCCCC1)NC1CCCC(NC(=O)NC2CCCCC2)C1` (stereo not drawn): the inhibition in assay [1] was 24%.
